# Measurements as given in US8338492B2, “Films and particles” (priority 2006, dated 2012).
# Assays:
# [1] = tested on: Lewis Lung Carcinoma (LLC) cell line; experiment: Cell proliferation assay (MTT, 5 days) with paclitaxel; assay type: cell-based, murine; details: media containing 10% FBS
# Protocol: (§1) Lewis Lung Carcinoma (LLC), Melanoma and Calu6 (human lung cancer) cell lines were plated at 3,000 cells/well and when established, cultured in media with/without paclitaxel.
# [2] = tested on: Calu6 (human lung cancer) cell line; experiment: as above; assay type: cell-based; details: media containing 10% FBS
# Protocol: as §1
# Melanoma cell line = details: 5 days, media containing 10% FBS
# Protocol: Cell proliferation assays testing the effects of paclitaxel were performed using three tumor cell lines. Lewis Lung Carcinoma (LLC), Melanoma and Calu6 (human lung cancer) cell lines were plated at 3,000 cells/well and when established, cultured in media with/without paclitaxel. Some cultures were maintained with optimal growth factors (serum) whereas others were serum starved (non-growing) cultures. At the end of 5 days, tumor cell proliferation was assessed via MTT analysis.
# To determine the kinetics of the anti-tumor response elicited by paclitaxel-loaded microparticles and to assess for a potential “burst effect” of drug release, a cell proliferation assay comparing paclitaxel-loaded microparticles and DMSO (control) microparticles using the melanoma cell line was run for five consecutive days with a plate undergoing MTT analysis each day for days 2-5. Paclitaxel loaded microparticles and DMSO microparticles were added to serum rich media and individually assessed on tumor cells of the same plate.
# Tumor cells = details: estimated
# Protocol: Cell proliferation assays were utilized to study the effects of paclitaxel-loaded microparticles on tumor growth. Tumor cells were plated at 3000 cells/well and positive (serum-rich) and negative (serum-poor) cultures were used to signify 0% and 100% growth inhibition respectively.
smiles,measurement,setting,value
CC(=O)O[C@H]1C(=O)[C@@]2(C)[C@H]([C@H](OC(=O)c3ccccc3)[C@]3(O)C[C@H](OC(=O)[C@H](O)[C@@H](NC(=O)c4ccccc4)c4ccccc4)C(C)=C1C3(C)C)[C@]1(OC(C)=O)CO[C@@H]1C[C@@H]2O [paclitaxel],paclitaxel concentration that reliably inhibits growth,[1],1 to 10 ng/mL
same,paclitaxel concentration that reliably inhibits growth,[2],1 to 10 ng/mL
same,paclitaxel concentration that reliably inhibits growth,Melanoma cell line,1 to 10 ng/mL
same,range of tumoricidal effects of paclitaxel,Tumor cells,5 to 10 ng
